Laboratory results: article PMC13534789, “Molecular Glue Degraders Enhance CAPRIN1‐Dependent Lysosomal Degradation of APP and Reduce Amyloid β in Alzheimer's Disease” (Advanced Science, 2026)
Like-named read-outs stand apart in the source and are kept apart here.

Columns and labels:
Aβ42 = Aβ42 ELISA of conditioned media, iPSC-derived neurons; assay type: cell-based, human; details: for IC50: Homo sapiens, Neuron
Text: The human iPSC SAD2.3 (UCSD234i‐SAD2‐3) and HVRDi002A were purchased from Wicell, UKBi011A from the European Bank for induced pluripotent stem cells, Sigma, AG25367, AG25370, AG27606, AG27608, AG27609, AG28049, AG28262, and AG27602 from Coriell. All iPSCs were maintained and expanded on Matrigel (Growth factor reduced Matrigel matrix, Corning) in mTeSR1 complete medium (mTeSR1 medium + 5X supplement, Stem Cell Technologies). For iPSC‐Ns transgene delivery, each iPSC line was transduced with lentiviral particles for pLVX‐UbC‐rtTA‐Ngn2:2A:Ascl1 […]), followed by selection in the presence of puromycin ([…], Gibco). To initiate conversion, iPSCs were differentiated into neurons using the established Ascl1/Mash1 (33) and Neurogenin 2 (Ngn2) (34) protocols.
iPSC‐Ns or HEK‐APP695WT were treated with drugs, and secreted Aβ42 peptides inculture soup were quantified using the Human Amyloid β1‐42 human ELISA kit (Thermo Fisher) according to the manufacturer's protocol. Mouse brain extraction was performed as previously described, with minor modifications. Mouse brain tissues were homogenized at a 1:10 weight‐to‐volume ratio in Tris‐buffered saline (TBS; 50 mM Tris, pH 7.4, 150 mM NaCl) supplemented with 2 mM EDTA and protease inhibitors. TBS‐homogenized brains were centrifuged for 1 h at 16 000 g. To extract total Aβ, including insoluble fractions, formic acid was added to a final concentration of 70%, and the samples were thoroughly mixed by pipetting. Homogenates were centrifuged at 100 000 g for 1 h at 4°C, and the resulting supernatants were collected. Prior to quantification, formic acid‐containing samples were neutralized with 1 M Tris base (pH 11). Aβ40 and Aβ42 levels were measured using human‐specific ELISA kits (Invitrogen) and normalized to total protein concentrations determined by the BCA assay (Thermo Scientific). For Aβ quantification in 3D organoids, 3D organoids’ processing and ELISA analysis were performed with minor modifications from previously described protocols. Briefly, cerebral organoids were lysed in RIPA buffer supplemented with protease and phosphatase inhibitor cocktails (Sigma), followed by sonication and incubation on ice for 60 min. Lysates were centrifuged at 13 000 rpm for 1 h at 4°C, and the supernatants were collected as the RIPA‐soluble fraction. The remaining pellets were resuspended in 70% formic acid, sonicated, and subsequently neutralized with Tris buffer to obtain the formic acid‐solubilized fraction. Aβ42 levels in both fractions were measured using human‐specific ELISA kits (Thermo Fisher) according to the manufacturer's instructions. Formic acid extracts were appropriately neutralized prior to ELISA. Aβ levels were normalized to total protein concentration determined by BCA assay.

[1] = IV and PO pharmacokinetics in mice; assay type: in vivo, C57BL/6 male mice; details: male; for AUC(0-t) / half-life / C0 / Tmax / Cmax: mouse plasma; for C0 / Cmax: read-out: C0/Cmax; for bioavailability: C57BL/6, mouse, plasma, oral, 10 mg/kg, PO 10 mpk vs IV 1 mpk, read-out: %F (oral bioavailability); for bioavailability / clearance / Vd: mouse; for clearance / Vd: C57BL/6, plasma, 1 mg/kg; for Vd: read-out: Vss
Method: IV and PO PK in rodents were processed by Sai Life Sciences Pvt. Ltd using 8‐ to 10‐week‐old C57BL/6 male mice following a single intravenous administration at 1 mg/kg and oral administration at 10 mg/kg. A total of eighteen mice (n = 9/group) were divided into two groups as Group 1 and Group 2, with a sparse sampling design (3 mice/time points). Animals in Group 1 were administered intravenously as slow bolus injections through the tail vein at 1 mg/kg dose, and animals in Group 2 were administered through the oral route at 10 mg/kg. For 0043, the formulation vehicle used for IV group was 5% NMP, 10% PG, 5% Solutol HS‐15, and 80% Captisol (10% w/v in RO water), and the formulation used for the PO group was 10% NMP, 10% PG, 10% TPGS, and 70% Captisol (10% w/v in RO water). For 0152, the formulation vehicle used for IV group was 5% DMSO, 20% Solutol HS‐15, and 75% PBS, and the formulation used for PO group was 5% NMP, 10% PG, 5% Solutol HS‐15, and 80% Captisol (10% w/v in RO water). Blood samples (approximately 60 µL) were collected under light isoflurane anesthesia (Surgivet) from retro orbital plexus from a set of three mice at 0.08, 0.25, 0.5, 1, 2, 4, 6, 8 and 24 h for IV and […], 0.5, 1, 2, 4, 6, 8 and 24 h for PO. Immediately after blood collection, plasma was harvested by centrifugation at 10 000 rpm, 10 min at […], and samples were stored at ‐70±10°C until bioanalysis. All samples were processed for analysis by the protein precipitation method and analyzed with a fit‐for‐purpose LC‐MS/MS method (LLOQ = 1.01 ng/mL). The plasma pharmacokinetic parameters were estimated using the non‐compartmental analysis tool of Phoenix WinNonlin software (Ver 8.3).

[2] = 120 h, AG27606 neurons, 5-day treatment, ELISA, normalized to DMSO, read-out: IC50, Aβ42 dose–response

SMILES: N#Cc1cccc(NC(=O)Nc2nc3ccc(C(=O)N4CCOCC4)cc3s2)c1 [compound 0043]
- Aβ42 secretion across iPSC-Ns from sAD, fAD and non-AD donors (Aβ42; 10 µM, 72 h): effectively lowered Aβ42 secretion
- IC50 (Aβ42; [2]): 2.1 µM
- IC50 (Aβ42; 120 h, sAD2.3 neurons, 5 days treatment, ELISA, read-out: IC50, relative Aβ42 levels in conditioned media): 1.8 µM
- IC50 (Aβ42; SAD2.3-Ns and AG27606-Ns, read-out: IC50 values, Aβ42 secretion): 1.8 to 2.1 µM
- Aβ42 levels in culture media (Aβ42; sAD2.3 neurons, 10 µM, 72 h): reduced Aβ42 levels
- AUC(0-t) ([1]; C57BL/6, 1 mg/kg, IV, 1 mpk): 0.219 µg·h/mL
- half-life ([1]; C57BL/6, 1 mg/kg, IV, 1 mpk): 9.6 min
- C0 ([1]; C57BL/6, 1 mg/kg, IV, 1 mpk): 1.38 µg/mL
- AUC(0-t) ([1]; C57BL/6, 10 mg/kg, PO, 10 mpk): 0.107 µg·h/mL
- Tmax ([1]; C57BL/6, 10 mg/kg, PO, 10 mpk): 15 min
- half-life ([1]; C57BL/6, 10 mg/kg, PO, 10 mpk): 95.4 min
- Cmax ([1]; C57BL/6, 10 mg/kg, PO, 10 mpk): 0.0975 µg/mL
- bioavailability [1]: 5%
- clearance ([1]; IV, 1 mpk): 4.52 L/h/kg
- Vd ([1]; IV, 1 mpk): 0.77 L/kg

SMILES: COc1cccc(NC(=O)Nc2nc3ccc(C(=O)N4CCOCC4)cc3s2)c1 [compound 0152]
- Aβ42 secretion across iPSC-Ns from sAD, fAD and non-AD donors (Aβ42; 10 µM, 72 h): consistently reduced both APP and Aβ42 levels
- IC50 (Aβ42; [2]): 0.9 µM
- AUC(0-t) ([1]; C57BL/6, 1 mg/kg, IV, 1 mpk): 0.209 µg·h/mL
- half-life ([1]; C57BL/6, 1 mg/kg, IV, 1 mpk): 25.2 min
- C0 ([1]; C57BL/6, 1 mg/kg, IV, 1 mpk): 0.938 µg/mL
- AUC(0-t) ([1]; C57BL/6, 10 mg/kg, PO, 10 mpk): 0.624 µg·h/mL
- Tmax ([1]; C57BL/6, 10 mg/kg, PO, 10 mpk): 30 min
- half-life ([1]; C57BL/6, 10 mg/kg, PO, 10 mpk): 144 min
- Cmax ([1]; C57BL/6, 10 mg/kg, PO, 10 mpk): 0.804 µg/mL
- bioavailability [1]: ≤ 30%
- clearance ([1]; IV, 1 mpk): 4.72 L/h/kg
- Vd ([1]; IV, 1 mpk): 1.34 L/kg
